Source: ChEMBL document CHEMBL1201862, “PubChem BioAssay data set” (2004)
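These data come from cells grown in 96-well plates and exposed to compound for 48 hours at five concentrations. GI50 = concentration required for 50% inhibition of growth.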 Calls of active or inactive are those of the source. Rule as the data show it: active = GI50 up to about 1.1 µM and inactive = higher.

Key:
Experiment in all cases: NCI anticancer screen, dose series, 48 h
[1] = test system: HCC 2998
[2] = test system: 786-0
[3] = test system: COLO 205
[4] = test system: Malme-3M
[5] = test system: SNB-75
[6] = test system: DMS-273
[7] = test system: MOLT-4
[8] = test system: SK-MEL-2
[9] = test system: A549
[10] = test system: CCRF-CEM
[11] = test system: ACHN
[12] = test system: NCI-H23
[13] = test system: IGROV-1
[14] = test system: K562
[15] = test system: SK-MEL-5
[16] = test system: KM12

SMILES | GI50 [1] | GI50 [2] | GI50 [3] | GI50 [4] | GI50 [5] | GI50 [6] | GI50 [7] | GI50 [8] | GI50 [9] | GI50 [10] | GI50 [11] | GI50 [12] | GI50 [13] | GI50 [14] | GI50 [15] | GI50 [16]
CCOC(=O)C(C)(C)Oc1ccc2c(=O)cc(-c3ccc(Cl)cc3)oc2c1 | > 100 µM (inactive) | > 100 µM (inactive) | > 100 µM (inactive) | > 100 µM (inactive) | 38.4 µM (inactive) | > 100 µM (inactive) | > 100 µM (inactive) | > 100 µM (inactive) | > 100 µM (inactive) | > 100 µM (inactive) | > 100 µM (inactive) | > 100 µM (inactive) | > 100 µM (inactive) | > 100 µM (inactive) | > 100 µM (inactive) | 
COC(=O)C(Cc1nc2ccccc2nc1O)C(=O)C(=O)Nc1ccc([N+](=O)[O-])cc1[N+](=O)[O-] (configuration not stated) | 18.1 µM (inactive) | 16.5 µM (inactive) | 16.4 µM (inactive) | 19.3 µM (inactive) | 16.3 µM (inactive) | 17.6 µM (inactive) | 18.5 µM (inactive) | 20.7 µM (inactive) | 34.1 µM (inactive) | 13.2 µM (inactive) | 18.2 µM (inactive) | 18.7 µM (inactive) | 25.6 µM (inactive) | 30.8 µM (inactive) | 18.3 µM (inactive) | 16 µM (inactive)
COc1ccc(OC(C(=O)O)c2ccccc2)c2c1CCCC2=O (configuration not stated) | > 100 µM (inactive) | > 100 µM (inactive) | > 100 µM (inactive) | > 100 µM (inactive) |  | > 100 µM (inactive) | > 100 µM (inactive) | > 100 µM (inactive) | > 100 µM (inactive) | > 100 µM (inactive) | > 100 µM (inactive) | > 100 µM (inactive) | > 100 µM (inactive) | > 100 µM (inactive) | > 100 µM (inactive) | > 100 µM (inactive)
c1ccc(C2=NOC3COc4ccccc4OCC23)cc1 (configuration not stated) | > 100 µM (inactive) | > 100 µM (inactive) | > 100 µM (inactive) | > 100 µM (inactive) | 54.6 µM (inactive) | > 100 µM (inactive) | > 100 µM (inactive) | > 100 µM (inactive) | > 100 µM (inactive) | > 100 µM (inactive) | > 100 µM (inactive) | > 100 µM (inactive) |  | 72.6 µM (inactive) | 61.5 µM (inactive) | 8.17 µM (inactive)
Cc1cccc2c1C/C(=C1\CCc3c(C)cccc31)C2=O | > 100 µM (inactive) | 90.4 µM (inactive) | > 100 µM (inactive) | > 100 µM (inactive) | 80.9 µM (inactive) | > 100 µM (inactive) | > 100 µM (inactive) | > 100 µM (inactive) | > 100 µM (inactive) | > 100 µM (inactive) | > 100 µM (inactive) | > 100 µM (inactive) | > 100 µM (inactive) | > 100 µM (inactive) | > 100 µM (inactive) | > 100 µM (inactive)
C=CCNC(=O)N(CCCCC(NC(C)=O)C(=O)NCc1ccccc1)Cc1ccccc1 (configuration not stated) |  | > 100 µM (inactive) | > 100 µM (inactive) | > 100 µM (inactive) | > 100 µM (inactive) | > 100 µM (inactive) | > 100 µM (inactive) | > 100 µM (inactive) | > 100 µM (inactive) | > 100 µM (inactive) | > 100 µM (inactive) | > 100 µM (inactive) | > 100 µM (inactive) | > 100 µM (inactive) | > 100 µM (inactive) | > 100 µM (inactive)
Cn1c(-c2ccccc2)c/c(=N\NS(C)(=O)=O)c2cc(S(=O)(=O)O)ccc21 | > 100 µM (inactive) | > 100 µM (inactive) | > 100 µM (inactive) | > 100 µM (inactive) | > 100 µM (inactive) | > 100 µM (inactive) | > 100 µM (inactive) | > 100 µM (inactive) | > 100 µM (inactive) | > 100 µM (inactive) | > 100 µM (inactive) | > 100 µM (inactive) | > 100 µM (inactive) | > 100 µM (inactive) | > 100 µM (inactive) | > 100 µM (inactive)
COc1ccc(NC(=O)C(C)Oc2ccc(OCC3CCCCC3)cc2)cc1 (configuration not stated) | 23.6 µM (inactive) | > 100 µM (inactive) |  | 34.2 µM (inactive) | 54 µM (inactive) | 42.3 µM (inactive) | 54.5 µM (inactive) | 81.1 µM (inactive) | 54.1 µM (inactive) | 71.1 µM (inactive) | 44.5 µM (inactive) | 34.5 µM (inactive) | > 100 µM (inactive) | 57.9 µM (inactive) | 34.1 µM (inactive) | > 100 µM (inactive)
CC1(C)CC(C)(C)CC(O)(C2(O)CC(C)(C)CC(C)(C)C2)C1 | > 100 µM (inactive) | > 100 µM (inactive) | > 100 µM (inactive) | > 100 µM (inactive) |  | > 100 µM (inactive) | > 100 µM (inactive) |  | > 100 µM (inactive) | > 100 µM (inactive) | > 100 µM (inactive) | > 100 µM (inactive) | > 100 µM (inactive) | > 100 µM (inactive) | > 100 µM (inactive) | > 100 µM (inactive)
CCOC(=O)N1C/C(=C\c2ccc(N(C)C)cc2)C(=O)/C(=C/c2ccc(N(C)C)cc2)C1 | > 100 µM (inactive) | > 100 µM (inactive) | > 100 µM (inactive) | > 100 µM (inactive) | > 100 µM (inactive) | > 100 µM (inactive) | > 100 µM (inactive) | > 100 µM (inactive) | > 100 µM (inactive) | > 100 µM (inactive) | > 100 µM (inactive) | > 100 µM (inactive) | > 100 µM (inactive) | > 100 µM (inactive) | > 100 µM (inactive) | > 100 µM (inactive)
O=C(CO)CC(=O)C(=O)Nc1nc([N+](=O)[O-])cs1 | > 100 µM (inactive) | > 100 µM (inactive) | > 100 µM (inactive) | > 100 µM (inactive) | 55.1 µM (inactive) | > 100 µM (inactive) | > 100 µM (inactive) | > 100 µM (inactive) | > 100 µM (inactive) | > 100 µM (inactive) | > 100 µM (inactive) | > 100 µM (inactive) | > 100 µM (inactive) | > 100 µM (inactive) | > 100 µM (inactive) | > 100 µM (inactive)
CC1=C(c2cc(C(=O)Nc3cccc(C(F)(F)F)c3)ncn2)Sc2ccccc2N1 |  | > 100 µM (inactive) | > 100 µM (inactive) | > 100 µM (inactive) | 58.9 µM (inactive) | > 100 µM (inactive) | > 100 µM (inactive) | > 100 µM (inactive) | > 100 µM (inactive) | > 100 µM (inactive) | > 100 µM (inactive) | > 100 µM (inactive) | > 100 µM (inactive) | > 100 µM (inactive) | > 100 µM (inactive) | > 100 µM (inactive)
O=S(=O)(c1ccccc1)C(CN1CCCCC1)S(=O)(=O)c1ccccc1 | > 100 µM (inactive) | > 100 µM (inactive) | > 100 µM (inactive) | > 100 µM (inactive) | > 100 µM (inactive) | > 100 µM (inactive) | > 100 µM (inactive) | > 100 µM (inactive) | > 100 µM (inactive) | > 100 µM (inactive) | > 100 µM (inactive) | > 100 µM (inactive) | > 100 µM (inactive) | > 100 µM (inactive) |  | > 100 µM (inactive)
O=C(/C=C/c1ccccc1Cl)NC1C=Nc2ccc([N+](=O)[O-])cc2NC1 (configuration not stated) | > 100 µM (inactive) | 44.8 µM (inactive) | 39.5 µM (inactive) | > 100 µM (inactive) | 90.8 µM (inactive) | > 100 µM (inactive) | 13.4 µM (inactive) | > 100 µM (inactive) | > 100 µM (inactive) | 12.7 µM (inactive) | 39.7 µM (inactive) |  | 88.7 µM (inactive) | 46.1 µM (inactive) | > 100 µM (inactive) | 34.4 µM (inactive)
Cc1ccc(NC(=O)C(=O)C(C(=O)c2ccc3ccccc3c2)C2OC(=O)c3ccccc32)cc1C (configuration not stated) | 2.77 µM (inactive) | 10 µM (inactive) | 16.6 µM (inactive) | 12.7 µM (inactive) | 2.98 µM (inactive) | 5.87 µM (inactive) | 3.3 µM (inactive) | 15.5 µM (inactive) | 16.5 µM (inactive) | 5.2 µM (inactive) | 32 µM (inactive) | 4.79 µM (inactive) | 18.7 µM (inactive) | 13.8 µM (inactive) | 15.2 µM (inactive) | 19.5 µM (inactive)
CN(C)c1ccc(/C=C(\NC(=O)c2ccccc2)c2nc3ccc4c(c3[nH]2)C(=O)c2ccccc2C4=O)cc1 | > 100 µM (inactive) | 25.4 µM (inactive) | > 100 µM (inactive) | > 100 µM (inactive) | 11 µM (inactive) | 27.2 µM (inactive) | 2.65 µM (inactive) | 61.8 µM (inactive) | 20 µM (inactive) | 0.966 µM (active) |  | 18.1 µM (inactive) | 11.4 µM (inactive) | 26.9 µM (inactive) | 34.3 µM (inactive) | 5.19 µM (inactive)
CC(=O)[O-].Cc1ncc(CO)c(/C=N/NC(N)=S)c1[O-].[Zn+2] | > 100 µM (inactive) | > 100 µM (inactive) | > 100 µM (inactive) | > 100 µM (inactive) | > 100 µM (inactive) | > 100 µM (inactive) | > 100 µM (inactive) | > 100 µM (inactive) | > 100 µM (inactive) | > 100 µM (inactive) | > 100 µM (inactive) | > 100 µM (inactive) | > 100 µM (inactive) | > 100 µM (inactive) | > 100 µM (inactive) | 
COc1ccc(OC)c2[nH]c(Sc3c([N+](=O)[O-])ncn3C)nc12 | 20.3 µM (inactive) | 29.3 µM (inactive) | 11.6 µM (inactive) | 13.5 µM (inactive) | 30.8 µM (inactive) | 11.8 µM (inactive) |  |  | 33.7 µM (inactive) |  | 27.8 µM (inactive) | 17.5 µM (inactive) | 24.2 µM (inactive) |  | 17.6 µM (inactive) | 43.1 µM (inactive)
